How the values were obtained:
[1] = tested on: OSC-20 (Oral Cavity Carcinoma); experiment: combination Emax (second highest fraction inhibited in the dose matrix, 72 h); higher = more inhibition; extreme values may be limits of the assay
Outline: (§1)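 After 24 hours at 37°C and 5% CO2 in 1536-well plates, cells in DMEM/F12 or RPMI plus 10% FBS received two-drug dose matrices for 72 hours. Viability came from CellTiter-Glo 2.0 luminescence and was scaled as inhibition, anchored at 0 by vehicle wells and at 1 by blank wells. Combination Emax is taken as the second-highest inhibition in the matrix, and Bliss excess as the observed combination effect less EA + EB − EA·EB, with EA and EB the single-agent effects.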

[2] = tested on: HOP-62 (Lung Adenocarcinoma); experiment: as above
Outline: as §1

[3] = tested on: PANC-04-03 (Pancreatic Carcinoma); experiment: as above
Outline: as §1

[4] = tested on: TGW (Neuroblastoma); experiment: as above
Outline: as §1

[5] = tested on: OVCAR-4 (Ovarian Carcinoma); experiment: as above
Outline: as §1

[6] = tested on: SU8686 (Pancreatic Carcinoma); experiment: as above
Outline: as §1

[7] = tested on: BT-549 (Breast Carcinoma); experiment: as above
Outline: as §1

[8] = tested on: NB69 (Neuroblastoma); experiment: as above
Outline: as §1

[9] = tested on: MIA-PaCa-2 (Pancreatic Carcinoma); experiment: as above
Outline: as §1

[10] = tested on: TK10 (Kidney Carcinoma); experiment: as above
Outline: as §1

[11] = tested on: NCI-H727 (Other Solid Carcinomas); experiment: as above
Outline: as §1

[12] = tested on: OE19 (Esophageal Adenocarcinoma); experiment: as above
Outline: as §1

[13] = tested on: Caov-4 (Ovarian Carcinoma); experiment: as above
Outline: as §1

[14] = tested on: MLMA (Other Blood Carcinomas); experiment: as above
Outline: as §1

[15] = tested on: D-263MG (Glioblastoma); experiment: as above
Outline: as §1

[16] = tested on: Ca9-22 (Head and Neck Carcinoma); experiment: as above
Outline: as §1

[17] = tested on: EFM-19 (Breast Carcinoma); experiment: as above
Outline: as §1

[18] = tested on: YH-13 (Glioblastoma); experiment: as above
Outline: as §1

[19] = tested on: HGC-27 (Gastric Carcinoma); experiment: as above
Outline: as §1

[20] = tested on: OSC-20 (Oral Cavity Carcinoma); experiment: Bliss excess, mean over the matrix (fraction); higher = more synergy
Outline: as §1
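For Bliss excess, mean over the matrix in this document: after 72 h of two-drug dosing.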

Compound	combination Emax [1]	combination Emax [2]	combination Emax [3]	combination Emax [4]	combination Emax [5]	combination Emax [6]	combination Emax [7]	combination Emax [8]	combination Emax [9]	combination Emax [10]	combination Emax [11]	combination Emax [12]	combination Emax [13]	combination Emax [14]	combination Emax [15]	combination Emax [16]	combination Emax [17]	combination Emax [18]	combination Emax [19]	Bliss excess [20]
COc1nnc2ccc(N3CCC(c4ccc(OCCN5CCN(C)C(=O)[C@H]5C)cc4)CC3)nn12 [AZD5153] + CC1(C)CCC(CN2CCN(c3ccc(C(=O)NS(=O)(=O)c4ccc(NCC5CCOCC5)c([N+](=O)[O-])c4)c(Oc4cnc5[nH]ccc5c4)c3)CC2)=C(c2ccc(Cl)cc2)C1 [Venetoclax] (first compound max 1 µM, 7x7, partner max 1 µM)	0.129	0.557	0.445	0.798	0.444	0.0794	0.518	0.952	0.878	0.594	0.34	0.494	0.543	0.912	0.369	0.66	0.359	0.656	0.777	-0.0554
CC(=O)c1c(C)c2cnc(Nc3ccc(N4CCNCC4)cn3)nc2n(C2CCCC2)c1=O [Palbociclib] + CC1(C)CCC(CN2CCN(c3ccc(C(=O)NS(=O)(=O)c4ccc(NCC5CCOCC5)c([N+](=O)[O-])c4)c(Oc4cnc5[nH]ccc5c4)c3)CC2)=C(c2ccc(Cl)cc2)C1 [Venetoclax] (first compound max 10 µM, 7x7, partner max 1 µM)	0.0423	0.251	0.0967	0.226	0.0611	0.0346	0.308	0.762	0.31	0.3	0.232	0.257	0.18	0.683	0.222	0.2	0.0695	0.344	0.628	-0.0545
CC1(C)CCC(CN2CCN(c3ccc(C(=O)NS(=O)(=O)c4ccc(NCC5CCOCC5)c([N+](=O)[O-])c4)c(Oc4cnc5[nH]ccc5c4)c3)CC2)=C(c2ccc(Cl)cc2)C1 [Venetoclax] + C1CN(CCC1(C(=O)N[C@@H](CCO)C2=CC=C(C=C2)Cl)N)C3=NC=NC4=C3C=CN4 [Capivasertib] (first compound max 1 µM, 7x7, partner max 3 µM)	0.265	0.14	0.199	0.465	0.1	0.059	0.239	0.426	0.213	0.339	0.482	0.306	0.282	0.866	0.202	0.212	0.489	0.259	0.814	-0.0354
NC1(C(=O)N[C@@H](CCO)c2ccc(Cl)cc2)CCN(c2ncnc3[nH]ccc23)CC1 [Capivasertib] + COc1nnc2ccc(N3CCC(c4ccc(OCCN5CCN(C)C(=O)[C@H]5C)cc4)CC3)nn12 [AZD5153] (first compound max 10 µM, 7x7, partner max 1 µM)	0.296	0.648	0.495	0.867	0.398	0.0398	0.602	0.91	0.813	0.63	0.434	0.656	0.526	0.994	0.562	0.799	0.538	0.723	0.972	0.0093
CS(=O)(=O)CCNCc1ccc(-c2ccc3ncnc(Nc4ccc(OCc5cccc(F)c5)c(Cl)c4)c3c2)o1 [Lapatinib] + NC1(c2ccc(-c3nc4ccn5c(=O)[nH]nc5c4cc3-c3ccccc3)cc2)CCC1 [MK-2206] (first compound max 10 µM, 7x7, partner max 10 µM)	–	–	0.505	0.422	–	–	0.583	0.941	0.929	0.698	0.88	–	0.878	0.945	0.492	0.971	0.792	0.909	0.988	–
C=CCn1c(=O)c2cnc(Nc3ccc(N4CCN(C)CC4)cc3)nc2n1-c1cccc(C(C)(C)O)n1 [AZD1775] + C1CN(CCC1(C(=O)N[C@@H](CCO)C2=CC=C(C=C2)Cl)N)C3=NC=NC4=C3C=CN4 [Capivasertib] (first compound max 3 µM, partner max 3 µM)	0.619	0.428	0.571	0.889	0.672	0.202	0.638	0.942	0.585	0.503	0.667	0.717	0.754	0.894	0.696	0.921	0.71	0.519	0.886	-0.0196
NC1(C(=O)N[C@@H](CCO)c2ccc(Cl)cc2)CCN(c2ncnc3[nH]ccc23)CC1 [Capivasertib] + CC(=O)c1c(C)c2cnc(Nc3ccc(N4CCNCC4)cn3)nc2n(C2CCCC2)c1=O [Palbociclib] (first compound max 10 µM, 7x7, partner max 10 µM)	0.279	0.572	0.261	0.378	0.168	0.07	0.391	0.726	0.451	0.516	0.507	0.523	0.377	0.515	0.448	0.442	0.481	0.609	0.874	-0.0005
CS(=O)(=O)CCNCc1ccc(-c2ccc3ncnc(Nc4ccc(OCc5cccc(F)c5)c(Cl)c4)c3c2)o1 [Lapatinib] + C[C@@H](Oc1cc(-c2cnn(C3CCNCC3)c2)cnc1N)c1c(Cl)ccc(F)c1Cl [Crizotinib] (first compound max 10 µM, 7x7, partner max 10 µM)	0.795	0.842	0.594	0.776	0.727	0.16	0.609	0.949	0.96	0.656	0.942	1	0.849	0.899	0.595	0.987	0.554	0.809	0.983	-0.0542
CCc1c2c(nc3ccc(O)cc13)-c1cc3c(c(=O)n1C2)COC(=O)[C@]3(O)CC [SN-38] + O=C(c1cc(Cc2n[nH]c(=O)c3ccccc23)ccc1F)N1CCN(C(=O)C2CC2)CC1 [Olaparib] (first compound max 0.3 µM, 7x7, partner max 10 µM)	0.746	0.672	0.465	0.668	0.24	–	0.636	0.967	0.935	0.373	0.256	0.309	0.937	0.858	0.703	0.868	0.566	0.58	0.852	-0.0034
CC1(C)CCC(CN2CCN(c3ccc(C(=O)NS(=O)(=O)c4ccc(NCC5CCOCC5)c([N+](=O)[O-])c4)c(Oc4cnc5[nH]ccc5c4)c3)CC2)=C(c2ccc(Cl)cc2)C1 [Venetoclax] + Cn1cnc2c(F)c(Nc3ccc(Br)cc3Cl)c(C(=O)NOCCO)cc21 [Selumetinib] (first compound max 1 µM, 7x7, partner max 3 µM)	0.172	0.435	0.354	0.337	0.209	0.135	0.106	0.919	0.403	0.322	0.601	0.182	0.364	0.93	0.119	0.222	0.232	0.181	0.142	-0.038
C[C@@H]1COCCN1c1cc(C2([S@](C)(=N)=O)CC2)nc(-c2ccnc3[nH]ccc23)n1 [AZD6738] + C1CC(C1)(C(=O)[O-])C(=O)[O-].N.N.[Pt+2] [Carboplatin] (first compound max 10 µM, 7x7, partner max 10 µM)	–	–	0.455	0.574	–	–	0.51	0.857	0.547	0.634	0.472	–	0.813	0.553	0.386	0.895	0.211	0.576	–	–
Cc1c2c(nn1C)CSCc1cc(n(C)n1)CSc1cc(c3ccccc3c1)OCCCc1c(C(=O)O)n(C)c3c-2c(Cl)ccc13 [AZD5991] + Nc1ccn([C@@H]2O[C@H](CO)[C@@H](O)C2(F)F)c(=O)n1 [Gemcitabine] (first compound max 1 µM, 7x7, partner max 0.3 µM)	–	–	0.548	0.621	–	–	0.395	0.99	0.85	0.346	0.283	–	0.83	0.821	0.894	0.68	0.573	0.574	–	–
O=C(c1cc(Cc2n[nH]c(=O)c3ccccc23)ccc1F)N1CCN(C(=O)C2CC2)CC1 [Olaparib] + Cc1c2c(nn1C)CSCc1cc(n(C)n1)CSc1cc(c3ccccc3c1)OCCCc1c(C(=O)O)n(C)c3c-2c(Cl)ccc13 [AZD5991] (first compound max 10 µM, 7x7, partner max 1 µM)	–	–	0.0799	0.192	–	–	0.217	0.886	0.161	0.0994	0.106	–	0.482	0.384	0.562	0.212	0.272	0.187	–	–
